In general, MIC refers to the least concentration at which growth counts as inhibited. Low readings indicate a more susceptible organism, high ones a less susceptible organism. By IC50 is commonly meant the point on the concentration scale where inhibition reaches its midpoint.

These results are taken from patent publication US20250243245A1 (priority 2022, published 2025).

Each structure is given as a SMILES string. “And” between values parts separate entries of the source, which are not always exact repeats. Equal values may be shown once. Read-outs that look alike come from different tables or passages of the source. Where a SMILES comes first, the peptide text is derived from it.

One data set concerns E. coli strain BL21. The note with it: BL21, 24 h.
A further data set deals with E. coli BL21. The note with it: BL21, 24 h.
The test system of a further data set is CLas. Type of data set: cell-based, Candidatus Liberibacter asiaticus.
In a further data set the test system is E. amylovora. It is filed as cell-based, Erwinia amylovora.
Data set [1] relates to selected genes in the PTI, ETI, and SA/JA/ET signaling. Type of data set: cell-based, apple (Red Delicious).
A further data set can be described thus: in vitro. The note with it: human, HEK cells (HEK294 [sic]).
Data set [2] has as its system tomato and tobacco leaves. Description: Leaf infiltration toxicity on tomato and tobacco leaves. The conditions noted are these: for toxicity to tomato and tobacco: 15-25 μM, even after 96 hours of leaf infiltration; for corrosion of infiltrated tomato and tobacco leaves: 24, 48, 72, and 96 hours of infiltration (FIGS. 8A-H).

In the case of `CC[C@H](C)[C@H](NC(=O)[C@H](CCCCN)NC(=O)[C@H](CC(C)C)NC(=O)[C@@H](NC(=O)[C@H](CCC(=O)O)NC(=O)[C@H](CCCCN)NC(=O)[C@@H]1CCCN1C(=O)[C@H](CC(C)C)NC(=O)[C@H](CCCCN)NC(=O)[C@@H](N)CCCCN)[C@@H](C)CC)C(=O)N[C@@H](CC(C)C)C(=O)NCC(=O)N[C@@H](CO)C(=O)NCC(=O)N[C@@H](Cc1ccc(O)cc1)C(=O)NCC(=O)N[C@@H](CO)C(=O)N[C@@H](CC(C)C)C(=O)N1CCC[C@H]1C(=O)N[C@@H](CCCCN)C(=O)N[C@@H](CCC(=O)O)C(=O)N[C@H](C(=O)N[C@@H](CC(C)C)C(=O)N[C@@H](CCCCN)C(=O)N[C@H](C(=O)N[C@@H](CC(C)C)C(=O)N[C@@H](CCC(=O)O)C(=O)N[C@@H](CC(C)C)C(=O)N[C@@H](CCCCN)C(=O)N[C@@H](CCCCN)C(=O)O)[C@@H](C)CC)[C@@H](C)CC` [Gen-1] (H-KKLPKEILKILGSGYGSLPKEILKILELKK-OH; N-terminus and C-terminus assumed), the MIC with E. coli strain BL21 was 5 to 10 mM. The 50% inhibitory concentration (IC50) in the data set on E. coli BL21 was 10.22 ± 0.07 µM.
The corresponding values for `CC[C@H](C)[C@H](NC(=O)[C@H](CCCNC(=N)N)NC(=O)[C@H](CCCNC(=N)N)NC(=O)[C@H](CCC(N)=O)NC(=O)[C@H](Cc1c[nH]c2ccccc12)NC(=O)[C@@H](N)Cc1ccccc1)C(=O)N[C@@H](CCCNC(=N)N)C(=O)N[C@@H](CCCNC(=N)N)C(=O)N[C@@H](Cc1c[nH]c2ccccc12)C(=O)N[C@@H](CCCNC(=N)N)C(=O)N[C@@H](CCCNC(=N)N)C(=O)O` [Peptide 11P-3, reference compound] (H-FWQRRIRRWRR-OH; N-terminus and C-terminus assumed) are greater than 20 mM and 49 ± 2.79 µM.
As for `CC[C@H](C)[C@H](NC(=O)[C@H](CCCCN)NC(=O)[C@H](CC(C)C)NC(=O)[C@@H](NC(=O)[C@H](CCCCN)NC(=O)[C@H](CCCCN)NC(=O)[C@@H]1CCCN1C(=O)[C@H](CC(C)C)NC(=O)[C@H](CCCCN)NC(=O)[C@@H](N)CCCCN)[C@@H](C)CC)C(=O)N[C@@H](CC(C)C)C(=O)NCC(=O)N[C@@H](CO)C(=O)NCC(=O)N[C@@H](Cc1ccc(O)cc1)C(=O)NCC(=O)N[C@@H](CO)C(=O)N1CCC[C@H]1C(=O)NCC(=O)N[C@@H](Cc1ccccc1)C(=O)N[C@@H](Cc1c[nH]c2ccccc12)C(=O)N[C@@H](CCC(N)=O)C(=O)N[C@@H](CCCNC(=N)N)C(=O)N[C@@H](CCCNC(=N)N)C(=O)N[C@H](C(=O)N[C@@H](CCCNC(=N)N)C(=O)N[C@@H](CCCNC(=N)N)C(=O)N[C@@H](Cc1c[nH]c2ccccc12)C(=O)N[C@@H](CCCNC(=N)N)C(=O)N[C@@H](CCCNC(=N)N)C(=O)O)[C@@H](C)CC` [Peptide 30P-3], in the data set on CLas, the “Ct value, DNA, CLas clearance from infected citrus leaves” value is listed as 29.08 ± 0.018 (2.3 × 10^4 ± 0.122); the “Ct value, RNA, CLas clearance from infected citrus leaves” value is recorded as 31.80 ± 0.028 (6.8 × 10^3 ± 0.190); the “Ct, DNA, HLBas (CLas primer), Mean” value was 27.53 and 26.725; the “Ct, DNA, HLBas (CLas primer), single replicate” value is 27 (2×) and 28.06 and 26.45. In the data set on CLas, the “Ct, RNA, HLBas (CLas primer), Mean” value is reported as 30.155; the “Ct, RNA, HLBas (CLas primer), single replicate” value is 29.94 and 30.37. Also, in the data set on E. amylovora (20 μM peptide), the “Ct, DNA, Erwinia Primer (P29T), Mean” value is recorded as 37.19; the “Ct, DNA, Erwinia Primer (P29T), single replicate” value was 37.67 and 36.71. In the data set on E. amylovora (25 μM peptide), the “Ct, DNA, Erwinia Primer (P29T), Mean” value stood at 36.5; the “Ct, DNA, Erwinia Primer (P29T), single replicate” value is 37.76 and 35.24. Moreover, in the data set with E. amylovora (25∞M peptide), the “Ct, RNA, Erwinia Primer (P29T), Mean” value stood at 31.535; the “Ct, RNA, Erwinia Primer (P29T), single replicate” value was 31.56 and 31.51. Also, the “Ct value, DNA, E. amylovora clearance from infected apple leaves” value with E. amylovora (qPCR of DNA, 25 μM peptide) is on record as 36.50 ± 0.89. For the same compound, the “cfu, DNA, E. amylovora clearance from infected apple leaves” value in the data set on E. amylovora (qPCR of DNA, 25 μM peptide, value in brackets) is reported as ~10^2 cfu. The “Ct value, RNA, E. amylovora clearance from infected apple leaves” value in the data set on E. amylovora (qPCR of RNA, 25 μM peptide) amounted to 31.54 ± 0.018. Further, in the data set with E. amylovora (qPCR of RNA, 25 μM peptide, value in brackets), the “cfu, RNA, E. amylovora clearance from infected apple leaves” value is on record as 7.8 × 10^3 ± 0.122 cfu. The “expression of the selected genes” value in data set [1] is on record as “lower expression of the selected genes”. The compound further showed an IC50 with E. coli BL21 of 1.45 ± 0.09 µM. In addition, the cytotoxicity at 72 h, 20 µM in the data set “in vitro” was less than 20%. In data set [2], the “toxicity to tomato and tobacco” value is recorded as “not toxic”; the “corrosion of infiltrated tomato and tobacco leaves” value is on record as “no corrosion beyond the infiltrated spots”.
For `CC[C@H](C)[C@H](NC(=O)[C@H](CCCNC(=N)N)NC(=O)[C@H](CCCNC(=N)N)NC(=O)[C@H](CCC(N)=O)NC(=O)[C@H](Cc1c[nH]c2ccccc12)NC(=O)[C@H](Cc1ccccc1)NC(=O)CNC(=O)[C@@H]1CCCN1C(=O)[C@H](CO)NC(=O)CNC(=O)[C@H](CCCCN)NC(=O)[C@H](CC(C)C)NC(=O)[C@H](CO)NC(=O)[C@H](CCC(=O)O)NC(=O)[C@H](CC(C)C)NC(=O)[C@@H](NC(=O)[C@H](CCCCN)NC(=O)[C@H](CC(C)C)NC(=O)[C@@H](NC(=O)[C@H](CCCCN)NC(=O)[C@H](CCC(=O)O)NC(=O)[C@@H]1CCCN1C(=O)[C@H](CC(C)C)NC(=O)[C@H](CCCCN)NC(=O)[C@@H](N)CCCCN)[C@@H](C)CC)[C@@H](C)CC)C(=O)N[C@@H](CCCNC(=N)N)C(=O)N[C@@H](CCCNC(=N)N)C(=O)N[C@@H](Cc1c[nH]c2ccccc12)C(=O)N[C@@H](CCCNC(=N)N)C(=O)N[C@@H](CCCNC(=N)N)C(=O)O` [UGK-17] (H-KKLPEKILKILESLKGSPGFWQRRIRRWRR-OH), in the data set on E. coli BL21, the IC50 was found to be 1.36 ± 0.04 µM. Moreover, in “in vitro”, the cytotoxicity at 72 h, 20 µM was less than 20%. Moreover, in data set [2], the “toxicity to tomato and tobacco” value is “not toxic”; the “corrosion of infiltrated tomato and tobacco leaves” value was “no corrosion beyond the infiltrated spots”.
In the data set with E. coli strain BL21, `CC[C@H](C)[C@H](NC(=O)[C@H](CCC(=O)O)NC(=O)[C@H](CC(C)C)NC(=O)[C@@H](NC(=O)[C@H](CCCCN)NC(=O)[C@H](CCC(=O)O)NC(=O)[C@@H]1CCCN1C(=O)[C@H](CC(C)C)NC(=O)[C@H](CCCCN)NC(=O)[C@@H](N)CCCCN)[C@@H](C)CC)C(=O)N[C@@H](CC(C)C)C(=O)NCC(=O)N[C@@H](CO)C(=O)NCC(=O)N[C@@H](Cc1ccc(O)cc1)C(=O)N[C@@H](CCCCN)C(=O)N[C@@H](CCCCN)C(=O)N[C@@H](CC(C)C)C(=O)N1CCC[C@H]1C(=O)N[C@@H](Cc1ccccc1)C(=O)N[C@@H](Cc1c[nH]c2ccccc12)C(=O)N[C@@H](CCC(N)=O)C(=O)N[C@@H](CCCNC(=N)N)C(=O)N[C@@H](CCCNC(=N)N)C(=O)N[C@H](C(=O)N[C@@H](CCCNC(=N)N)C(=O)N[C@@H](CCCNC(=N)N)C(=O)N[C@@H](Cc1c[nH]c2ccccc12)C(=O)N[C@@H](CCCNC(=N)N)C(=O)N[C@@H](CCCNC(=N)N)C(=O)O)[C@@H](C)CC` [Gen-2] (H-KKLPEKILEILGSGYKKLPFWQRRIRRWRR-OH; N-terminus and C-terminus assumed) gave an MIC of 2.5 to 5 mM. The concentration for half-maximal inhibition (IC50) with E. coli BL21 turned out to be 2.83 ± 0.14 µM.
In the same order, the values of `CC[C@H](C)[C@H](NC(=O)[C@H](CCCCN)NC(=O)[C@H](CC(C)C)NC(=O)[C@@H](NC(=O)[C@H](CCCCN)NC(=O)[C@H](CCCCN)NC(=O)[C@@H](NC(=O)[C@H](CC(C)C)NC(=O)[C@H](CCCCN)NC(=O)[C@@H](N)CCCCN)[C@@H](C)CC)[C@@H](C)CC)C(=O)N[C@@H](CC(C)C)C(=O)O` [Peptide 11P-1, reference compound] (H-KKLIKKILKIL-OH; N-terminus and C-terminus assumed) are 10 to 20 mM and 12.9 ± 0.62 µM.
